Experimental data reported in PubChem BioAssay (NCI).
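Grown in 96-well plates, cells were treated for 48 hours with each compound at five concentrations. Insufficient inhibition: endpoint recorded as highest concentration tested. TGI: total growth inhibition.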

Experiments:
Test in all cases: NCI anticancer screen, dose series, 48 h
U251 CNS = tested on: U251 CNS
LOX IMVI melanoma = tested on: LOX IMVI melanoma
SF-268 CNS = tested on: SF-268 CNS
SF-295 CNS = tested on: SF-295 CNS
MDA-N = tested on: MDA-N
NCI/ADR-RES ovarian = tested on: NCI/ADR-RES ovarian
SF-539 CNS = tested on: SF-539 CNS
CAKI-1 renal = tested on: CAKI-1 renal
SNB-19 CNS = tested on: SNB-19 CNS
EKVX NSCLC = tested on: EKVX NSCLC
HOP-92 NSCLC = tested on: HOP-92 NSCLC
HT29 colon = tested on: HT29 colon
ACHN renal = tested on: ACHN renal
786-0 renal = tested on: 786-0 renal
SNB-75 CNS = tested on: SNB-75 CNS
M14 melanoma = tested on: M14 melanoma
MDA-MB-231 breast = tested on: MDA-MB-231 breast
OVCAR-4 ovarian = tested on: OVCAR-4 ovarian
SW-620 colon = tested on: SW-620 colon
IGROV1 ovarian = tested on: IGROV1 ovarian
HCT-116 colon = tested on: HCT-116 colon
OVCAR-5 ovarian = tested on: OVCAR-5 ovarian
COLO 205 colon = tested on: COLO 205 colon
DU-145 prostate = tested on: DU-145 prostate
MALME-3M melanoma = tested on: MALME-3M melanoma
SK-MEL-5 melanoma = tested on: SK-MEL-5 melanoma
NCI-H226 lung = tested on: NCI-H226 lung
HOP-62 NSCLC = tested on: HOP-62 NSCLC
RPMI-8226 leukemia = tested on: RPMI-8226 leukemia
SR leukemia = tested on: SR leukemia
HCC-2998 colon = tested on: HCC-2998 colon
OVCAR-3 ovarian = tested on: OVCAR-3 ovarian
NCI-H460 lung = tested on: NCI-H460 lung
NCI-H522 lung = tested on: NCI-H522 lung
SK-MEL-28 melanoma = tested on: SK-MEL-28 melanoma
T-47D breast = tested on: T-47D breast
UO-31 renal = tested on: UO-31 renal
BT-549 breast = tested on: BT-549 breast
HCT-15 colon = tested on: HCT-15 colon
UACC-257 melanoma = tested on: UACC-257 melanoma
HS 578T breast = tested on: HS 578T breast
OVCAR-8 ovarian = tested on: OVCAR-8 ovarian
PC-3 prostate = tested on: PC-3 prostate
RXF 393 renal = tested on: RXF 393 renal
MDA-MB-435 = tested on: MDA-MB-435
TK-10 renal = tested on: TK-10 renal
CCRF-CEM leukemia = tested on: CCRF-CEM leukemia
SN12C renal = tested on: SN12C renal
K-562 leukemia = tested on: K-562 leukemia
MOLT-4 leukemia = tested on: MOLT-4 leukemia
A549 NSCLC = tested on: A549 NSCLC
NCI-H23 lung = tested on: NCI-H23 lung
HL-60(TB) leukemia = tested on: HL-60(TB) leukemia
A498 renal = tested on: A498 renal
SK-OV-3 ovarian = tested on: SK-OV-3 ovarian
UACC-62 melanoma = tested on: UACC-62 melanoma
KM12 colon = tested on: KM12 colon
MCF7 breast = tested on: MCF7 breast
LXFL 529 NSCLC = tested on: LXFL 529 NSCLC
XF 498 CNS = tested on: XF 498 CNS
DLD-1 colon = tested on: DLD-1 colon
DMS 273 small cell lung = tested on: DMS 273 small cell lung
KM20L2 colon = tested on: KM20L2 colon
SK-MEL-2 melanoma = tested on: SK-MEL-2 melanoma
M19-MEL melanoma = tested on: M19-MEL melanoma
DMS 114 small cell lung = tested on: DMS 114 small cell lung
SNB-78 CNS = tested on: SNB-78 CNS

Measured: TGI

Cc1ccc(S(=O)(=O)N2CCN(S(=O)(=O)c3ccc(C)cc3)CCN(S(=O)(=O)c3ccc(C)cc3)Cc3cc(Br)c(Br)cc3CN(S(=O)(=O)c3ccc(C)cc3)CC2)cc1
71.1 µM: MDA-MB-231 breast
43.2 µM: M14 melanoma
92.4 µM: HOP-92 NSCLC
not listed: LXFL 529 NSCLC | XF 498 CNS | DLD-1 colon | DMS 273 small cell lung | KM20L2 colon | SK-MEL-2 melanoma | M19-MEL melanoma | DMS 114 small cell lung | SNB-78 CNS
> 100 µM: all other assays above

O=C(O)C12CC3CC(CC(F)(C3)C1)C2
not listed: SF-268 CNS | SF-295 CNS | MDA-N | NCI/ADR-RES ovarian | CAKI-1 renal | SNB-19 CNS | MDA-MB-231 breast | OVCAR-4 ovarian | DU-145 prostate | NCI-H226 lung | SR leukemia | T-47D breast | BT-549 breast | HCT-15 colon | HS 578T breast | PC-3 prostate | MDA-MB-435 | SN12C renal | MCF7 breast
> 100 µM: all other assays above
